Reference: US5440016A, “Peptides of the formula (KFmoc) ZZZ and their uses” (priority 1993, dated 1995)
Square brackets hold non-standard residues; d marks the D form. Peptide text beside a SMILES is read from it. * marks the point of attachment. Phe(4-NO2) = N[C@@H](Cc1ccc([N+](=O)[O-])cc1)C(=O)O; Met(O2) = CS(=O)(=O)CC[C@H](N)C(=O)O; Fmoc = O=C(OCC1c2ccccc2-c2ccccc21)*; Nle = CCCC[C@H](N)C(=O)O; Thz = O=C(O)[C@@H]1CSCN1; Nva = CCC[C@H](N)C(=O)O; Abu = CC[C@H](N)C(=O)O; Aib = CC(C)(N)C(=O)O; βAla = NCCC(=O)O

Each molecule was assayed against melittin (Apis mellifera, UniProt P01501) (assay: cell-based). Conditions: read-out: IC50, inhibition of melittin (converted).
Chain of melittin (P01501 44-69 limits assumed): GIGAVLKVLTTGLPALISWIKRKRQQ

| Molecule | IC50 [µM] |
| --- | --- |
| Ac-IVILLS-NH2 [Ac-IVILLS-NH2] | 21.5 |
| Ac-IVILLK-NH2 [Ac-IVILLK-NH2] | > 338 |
| Ac-FQIWFE-NH2 [Ac-FQIWFE-NH2] | 9.01 |
| Ac-IVILTL-NH2 [Ac-IVILTL-NH2] | 14 |
| Ac-FQIYCE-NH2 [Ac-FQIYCE-NH2] | 16.6 |
| Ac-IVILLT-NH2 [Ac-IVILLT-NH2] | 25.3 |
| Ac-IVIFFK-NH2 [Ac-IVIFFK-NH2] | > 310 |
| Ac-IVIFFH-NH2 [Ac-IVIFFH-NH2] | 36.8 |
| Ac-IVIFFG-NH2 [Ac-IVIFFG-NH2] | 29.9 |
| Ac-IVIFFN-NH2 [Ac-IVIFFN-NH2] | 22.7 |
| Ac-FIIYFE-NH2 [Ac-FIIYFE-NH2] | 7.8 |
| Ac-IVILTN-NH2 [Ac-IVILTN-NH2] | 19.6 |
| Ac-IVIFFM-NH2 [Ac-IVIFFM-NH2] | 25.9 |
| Ac-IVILLD-NH2 [Ac-IVILLD-NH2] | 24.8 |
| Ac-IVILTE-NH2 [Ac-IVILTE-NH2] | 33 |
| Ac-IQIWFE-NH2 [Ac-IQIWFE-NH2] | 24 |
| Ac-IVILTF-NH2 [Ac-IVILTF-NH2] | 13.4 |
| Ac-FIIWCE-NH2 [Ac-FIIWCE-NH2] | 4 |
| Ac-IVILTI-NH2 [Ac-IVILTI-NH2] | > 351 |
| Ac-FDIYCE-NH2 [Ac-FDIYCE-NH2] | 229 |

These molecules were tested on Human red blood cells (RBCs) (assay: Hemolytic activity). Conditions: Table 20, lower part.
Assay type: cell-based
Experimental: Each assay was carried out in 96-well culture tissue plates. Four wells per plate contain 125 μl of a non-peptide positive control (1% Triton in de-ionized water), and four wells per plate contain 125 μl of a control blank, phosphate buffered saline (PBS). The hemolytic peptide melittin was used as comparative control. The controls served to detect possible contamination and to calculate the percent hemolysis of each peptide. Human red blood cells (RBCs) were washed with PBS and centrifuged to separate them from the serum. The cells were then resuspended in PBS to a final suspension of 0.5% RBC. 125 μl of this suspension was added to the peptides and controls solution. The release of hemoglobin resulting from the cell lysis was determined by measuring the OD at 414 nm of 100 μl of the supernatant.

| Molecule | HD50 (concentration necessary to lyse 50% of the cells) [μg/m] |
| --- | --- |
| NCCCC[C@H](NC(=O)OCC1c2ccccc2-c2ccccc21)C(=O)N[C@@H](Cc1c[nH]c2ccccc12)C(=O)N[C@H](Cc1ccccc1)C(=O)N1CSC[C@H]1C(N)=O [(KFmoc)Wf(Thiopro)-NH2] (Fmoc-KW[dF][Thz]-NH2) | 45 |

Same assay, conditions: Tables 18-21

| Molecule | HD50 (concentration necessary to lyse 50% of the cells) [µg/mL] |
| --- | --- |
| CC[C@@H](C)[C@@H](NC(=O)[C@@H](CS)NC(=O)[C@H](CCCCN)NC(=O)OCC1c2ccccc2-c2ccccc21)C(=O)NCCC(N)=O [(KFmoc)ci(Bala)-NH2] (Fmoc-K[dC][dI][βAla]-NH2) | 37 |
| CCC[C@H](NC(=O)[C@H](CCCCN)NC(=O)[C@H](Cc1c[nH]c2ccccc12)NC(=O)[C@H](CCCCN)NC(=O)OCC1c2ccccc2-c2ccccc21)C(N)=O [(KFmoc)WK(Nve)-NH2] (Fmoc-KWK[Nva]-NH2) | 98 |
| NCCCC[C@H](NC(=O)OCC1c2ccccc2-c2ccccc21)C(=O)N[C@@H](Cc1c[nH]c2ccccc12)C(=O)N[C@@H](CCCCN)C(=O)N[C@@H](CO)C(N)=O [(KFmoc)WKS-NH2] (Fmoc-KWKS-NH2) | 206 |
| CC[C@H](NC(=O)[C@H](CCCCN)NC(=O)[C@H](Cc1c[nH]c2ccccc12)NC(=O)[C@H](CCCCN)NC(=O)OCC1c2ccccc2-c2ccccc21)C(N)=O [(KFmoc)WK(aABA)-NH2] (Fmoc-KWK[Abu]-NH2) | 449 |
| CC[C@@H](C)[C@@H](NC(=O)[C@@H](CS)NC(=O)[C@H](CCCCN)NC(=O)OCC1c2ccccc2-c2ccccc21)C(=O)N[C@@H](Cc1ccccc1)C(N)=O [(KFmoc)ciF-NH2] (Fmoc-K[dC][dI]F-NH2) | 295 |
| CS(=O)(=O)CC[C@H](NC(=O)[C@H](CCCCN)NC(=O)[C@H](Cc1c[nH]c2ccccc12)NC(=O)[C@H](CCCCN)NC(=O)OCC1c2ccccc2-c2ccccc21)C(N)=O [(KFmoc)WK(MetO2)-NH2] (Fmoc-KWK[Met(O2)]-NH2) | 437 |
| CC[C@H](NC(=O)[C@H](Cc1ccc(O)cc1)NC(=O)[C@H](Cc1c[nH]c2ccccc12)NC(=O)[C@H](CCCCN)NC(=O)OCC1c2ccccc2-c2ccccc21)C(N)=O [(KFmoc)WY(aABA)-NH2] (Fmoc-KWY[Abu]-NH2) | 114 |
| CC[C@@H](C)[C@@H](NC(=O)[C@@H](CS)NC(=O)[C@H](CCCCN)NC(=O)OCC1c2ccccc2-c2ccccc21)C(=O)N[C@@H](CCS(C)(=O)=O)C(N)=O [(KFmoc)ci(MetO2)-NH2] (Fmoc-K[dC][dI][Met(O2)]-NH2) | 40 |
| NCCCC[C@H](NC(=O)[C@H](Cc1ccc(O)cc1)NC(=O)[C@H](Cc1c[nH]c2ccccc12)NC(=O)[C@H](CCCCN)NC(=O)OCC1c2ccccc2-c2ccccc21)C(N)=O [(KFmoc)WYK-NH2] (Fmoc-KWYK-NH2) | 65 |
| NCCCC[C@H](NC(=O)OCC1c2ccccc2-c2ccccc21)C(=O)N[C@@H](Cc1c[nH]c2ccccc12)C(=O)N[C@@H](CCCCN)C(=O)N[C@@H](Cc1ccccc1)C(N)=O [(KFmoc)WKF-NH2] (Fmoc-KWKF-NH2) | 105 |
| CC[C@@H](C)[C@@H](NC(=O)[C@@H](CS)NC(=O)[C@H](CCCCN)NC(=O)OCC1c2ccccc2-c2ccccc21)C(=O)NC(C)(C)C(N)=O [(KFmoc)ci(aAIB)-NH2] (Fmoc-K[dC][dI][Aib]-NH2) | 28 |
| NCCCC[C@H](NC(=O)OCC1c2ccccc2-c2ccccc21)C(=O)N[C@@H](Cc1c[nH]c2ccccc12)C(=O)N[C@H](Cc1ccccc1)C(=O)N[C@@H](Cc1ccc(O)cc1)C(N)=O [(KFmoc)WfY-NH2] (Fmoc-KW[dF]Y-NH2) | 42 |
| NCCCC[C@H](NC(=O)OCC1c2ccccc2-c2ccccc21)C(=O)N[C@@H](Cc1c[nH]c2ccccc12)C(=O)N[C@@H](Cc1ccc(O)cc1)C(=O)N[C@@H](CS)C(N)=O [(KFmoc)WYC-NH2] (Fmoc-KWYC-NH2) | 267 |
| NCCCC[C@H](NC(=O)OCC1c2ccccc2-c2ccccc21)C(=O)N[C@@H](Cc1c[nH]c2ccccc12)C(=O)N[C@@H](CCCCN)C(=O)N[C@@H](Cc1c[nH]cn1)C(N)=O [(KFmoc)WKH-NH2] (Fmoc-KWKH-NH2) | 312 |
| NCCCC[C@H](NC(=O)OCC1c2ccccc2-c2ccccc21)C(=O)N[C@@H](Cc1c[nH]c2ccccc12)C(=O)N[C@@H](Cc1ccc(O)cc1)C(=O)N1CCC[C@H]1C(N)=O [(KFmoc)WYP-NH2] (Fmoc-KWYP-NH2) | 97 |
| NCCCC[C@H](NC(=O)OCC1c2ccccc2-c2ccccc21)C(=O)N[C@@H](Cc1c[nH]c2ccccc12)C(=O)N[C@@H](CCCCN)C(=O)N[C@@H](CC(N)=O)C(N)=O [(KFmoc)WKN-NH2] (Fmoc-KWKN-NH2) | 204 |
| CC(C)C[C@H](NC(=O)[C@@H](Cc1ccccc1)NC(=O)[C@H](Cc1c[nH]c2ccccc12)NC(=O)[C@H](CCCCN)NC(=O)OCC1c2ccccc2-c2ccccc21)C(N)=O [(KFmoc)WfL-NH2] (Fmoc-KW[dF]L-NH2) | 294 |
| NCCCC[C@H](NC(=O)OCC1c2ccccc2-c2ccccc21)C(=O)N[C@@H](Cc1c[nH]c2ccccc12)C(=O)N[C@@H](CCCCN)C(=O)N[C@@H](Cc1ccc([N+](=O)[O-])cc1)C(N)=O [(KFmoc)WK(NO2 F)-NH2] (Fmoc-KWK[Phe(4-NO2)]-NH2) | 67 |
| C[C@@H](O)[C@H](NC(=O)[C@H](CCCCN)NC(=O)[C@H](Cc1c[nH]c2ccccc12)NC(=O)[C@H](CCCCN)NC(=O)OCC1c2ccccc2-c2ccccc21)C(N)=O [(KFmoc)WKT-NH2] (Fmoc-KWKT-NH2) | 367 |
| N=C(N)NCCC[C@H](NC(=O)[C@@H](Cc1ccccc1)NC(=O)[C@H](Cc1c[nH]c2ccccc12)NC(=O)[C@H](CCCCN)NC(=O)OCC1c2ccccc2-c2ccccc21)C(N)=O [(KFmoc)WfR-NH2] (Fmoc-KW[dF]R-NH2) | 122 |
| NCCCC[C@H](NC(=O)OCC1c2ccccc2-c2ccccc21)C(=O)N[C@@H](Cc1c[nH]c2ccccc12)C(=O)N[C@@H](CCCCN)C(=O)N[C@@H](CS)C(N)=O [(KFmoc)WKC-NH2] (Fmoc-KWKC-NH2) | 43 |
| CC(C)[C@H](NC(=O)[C@H](CCCCN)NC(=O)[C@H](Cc1c[nH]c2ccccc12)NC(=O)[C@H](CCCCN)NC(=O)OCC1c2ccccc2-c2ccccc21)C(N)=O [(KFmoc)WKV-NH2] (Fmoc-KWKV-NH2) | 137 |
| CCCC[C@H](NC(=O)[C@H](CCCCN)NC(=O)[C@H](Cc1c[nH]c2ccccc12)NC(=O)[C@H](CCCCN)NC(=O)OCC1c2ccccc2-c2ccccc21)C(N)=O [(KFmoc)WK(Nle)-NH2] (Fmoc-KWK[Nle]-NH2) | 91 |
| C[C@@H](O)[C@H](NC(=O)[C@H](Cc1ccc(O)cc1)NC(=O)[C@H](Cc1c[nH]c2ccccc12)NC(=O)[C@H](CCCCN)NC(=O)OCC1c2ccccc2-c2ccccc21)C(N)=O [(KFmoc)WYT-NH2] (Fmoc-KWYT-NH2) | 53 |
| NCCCC[C@H](NC(=O)OCC1c2ccccc2-c2ccccc21)C(=O)N[C@@H](Cc1c[nH]c2ccccc12)C(=O)N[C@@H](Cc1ccc(O)cc1)C(=O)NCC(N)=O [(KFmoc)WYG-NH2] (Fmoc-KWYG-NH2) | 376 |
| CC[C@@H](C)[C@@H](NC(=O)[C@@H](CS)NC(=O)[C@H](CCCCN)NC(=O)OCC1c2ccccc2-c2ccccc21)C(=O)N[C@@H](Cc1ccc([N+](=O)[O-])cc1)C(N)=O [(KFmoc)ci(NO2 F)-NH2] (Fmoc-K[dC][dI][Phe(4-NO2)]-NH2) | 363 |
